Where “and” joins values, the source holds several entries; their conditions need not be identical. Equal entries are not always repeated.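 The compound was tested at five concentrations on cells cultured in 96-well plates, with a 48-hour exposure period. GI50 = concentration required for 50% inhibition of growth. The concentration for full growth arrest is given as TGI.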
Columns and labels:
Assay in all cases: NCI-60 cell line screen, 48 h
[1] = system: BT-549 breast
[2] = system: K-562 leukemia
[3] = system: 786-0 renal
[4] = system: CCRF-CEM leukemia
[5] = system: SK-MEL-5 melanoma
[6] = system: NCI-H226 lung
[7] = system: HS 578T breast
[8] = system: HL-60(TB) leukemia
[9] = system: SF-539 CNS
[10] = system: MDA-MB-231 breast
[11] = system: T-47D breast
[12] = system: HCC-2998 colon
[13] = system: SW-620 colon
[14] = system: MCF7 breast
[15] = system: SNB-19 CNS
[16] = system: OVCAR-3 ovarian
[17] = system: MOLT-4 leukemia
[18] = system: SK-OV-3 ovarian
[19] = system: MALME-3M melanoma
[20] = system: HT29 colon
[21] = system: M14 melanoma
[22] = system: HOP-92 NSCLC
[23] = system: A549 NSCLC
[24] = system: SF-268 CNS
[25] = system: NCI-H522 lung
[26] = system: SK-MEL-2 melanoma
[27] = system: MDA-MB-435
[28] = system: IGROV1 ovarian
[29] = system: RPMI-8226 leukemia
[30] = system: COLO 205 colon
[31] = system: EKVX NSCLC
[32] = system: NCI-H460 lung
[33] = system: A498 renal
[34] = system: NCI/ADR-RES ovarian
[35] = system: UACC-257 melanoma
[36] = system: DU-145 prostate
[37] = system: HOP-62 NSCLC
[38] = system: RXF 393 renal
[39] = system: HCT-15 colon
[40] = system: SK-MEL-28 melanoma
[41] = system: SR leukemia
[42] = system: SN12C renal
[43] = system: HCT-116 colon
[44] = system: LOX IMVI melanoma
[45] = system: SF-295 CNS
[46] = system: TK-10 renal
[47] = system: OVCAR-8 ovarian
[48] = system: NCI-H23 lung
[49] = system: U251 CNS
[50] = system: SNB-75 CNS
[51] = system: UO-31 renal
[52] = system: UACC-62 melanoma
[53] = system: KM12 colon
[54] = system: CAKI-1 renal
[55] = system: OVCAR-4 ovarian
[56] = system: ACHN renal
[57] = system: PC-3 prostate
[58] = system: OVCAR-5 ovarian

Compound: O=C(/C=C/c1cccnc1)NCCCCC1CCN(C(=O)c2ccccc2)CC1
- GI50 [1]: 6.11 µM and 19.6 µM
- TGI [1]: > 100 µM
- GI50 [2]: < 10 nM
- TGI [2]: > 100 µM
- GI50 [3]: > 100 µM
- TGI [3]: > 100 µM
- GI50 [4]: < 10 nM
- TGI [4]: > 100 µM
- GI50 [5]: 35.3 µM and 21.8 µM
- TGI [5]: > 100 µM
- GI50 [6]: > 100 µM and 62.3 µM
- TGI [6]: > 100 µM
- GI50 [7]: > 100 µM
- TGI [7]: > 100 µM
- GI50 [8]: > 65.6 µM
- TGI [8]: > 100 µM
- GI50 [9]: < 10 nM
- TGI [9]: > 100 µM
- GI50 [10]: > 100 µM
- TGI [10]: > 100 µM
- GI50 [11]: 1930 nM
- TGI [11]: > 90.3 µM
- TGI [12]: > 100 µM
- GI50 [13]: < 10 nM
- TGI [13]: > 100 µM
- TGI [14]: > 100 µM
- GI50 [15]: 615 nM and 4430 nM
- TGI [15]: > 100 µM
- GI50 [16]: 48.5 µM and 6.22 µM
- TGI [16]: > 100 µM
- GI50 [17]: 31.1 µM and 21.7 µM
- TGI [17]: > 100 µM
- GI50 [18]: > 100 µM
- TGI [18]: > 100 µM
- GI50 [19]: > 86.5 µM
- TGI [19]: > 100 µM
- GI50 [20]: < 10 nM
- TGI [20]: > 100 µM
- GI50 [21]: < 10 nM
- TGI [21]: > 100 µM
- GI50 [22]: 26.8 µM and > 32 µM
- TGI [22]: > 100 µM
- GI50 [23]: 166 nM
- TGI [23]: > 100 µM
- GI50 [24]: > 100 µM
- TGI [24]: > 100 µM
- GI50 [25]: < 10 nM
- TGI [25]: > 100 µM
- GI50 [26]: > 100 µM
- TGI [26]: > 100 µM
- GI50 [27]: < 10 nM
- TGI [27]: > 100 µM
- GI50 [28]: > 47.3 µM
- TGI [28]: > 100 µM
- TGI [29]: > 100 µM
- GI50 [30]: 25.4 µM
- TGI [30]: > 100 µM
- GI50 [31]: > 66.9 µM
- TGI [31]: > 100 µM
- GI50 [32]: 274 nM and 76.7 nM
- TGI [32]: > 100 µM
- GI50 [33]: > 100 µM and 14.5 µM
- TGI [33]: > 100 µM and 97.8 µM
- GI50 [34]: < 13.5 nM
- TGI [34]: > 100 µM
- GI50 [35]: > 100 µM
- TGI [35]: > 100 µM
- GI50 [36]: 23.4 nM and < 31.5 nM
- TGI [36]: > 100 µM
- GI50 [37]: > 100 µM
- TGI [37]: > 100 µM
- GI50 [38]: > 100 µM
- TGI [38]: > 100 µM
- GI50 [39]: < 10 nM
- TGI [39]: > 100 µM
- GI50 [40]: > 100 µM
- TGI [40]: > 100 µM
- TGI [41]: > 100 µM
- GI50 [42]: < 10 nM
- TGI [42]: > 100 µM
- GI50 [43]: < 10 nM
- TGI [43]: > 100 µM
- GI50 [44]: > 100 µM
- TGI [44]: > 100 µM
- GI50 [45]: < 25.6 nM
- TGI [45]: > 100 µM
- GI50 [46]: > 100 µM
- TGI [46]: > 100 µM
- GI50 [47]: < 10 nM
- TGI [47]: > 100 µM
- GI50 [48]: > 100 µM
- TGI [48]: > 100 µM
- TGI [49]: > 100 µM
- GI50 [50]: > 73.6 µM
- TGI [50]: > 100 µM
- GI50 [51]: > 100 µM
- TGI [51]: > 100 µM
- GI50 [52]: 70.3 µM and > 58 µM
- TGI [52]: > 100 µM
- GI50 [53]: 14.5 nM and < 11.8 nM
- TGI [53]: > 100 µM
- GI50 [54]: > 100 µM
- TGI [54]: > 100 µM
- GI50 [55]: > 66 µM and 26.2 µM
- TGI [55]: > 100 µM
- GI50 [56]: > 100 µM
- TGI [56]: > 100 µM
- GI50 [57]: < 10 nM
- TGI [57]: > 100 µM
- GI50 [58]: 27.7 µM
- TGI [58]: > 100 µM

From PubChem BioAssay (NCI)
